This note sets out measurements from PMC7114283 (Antiviral Research, 2010).

Series [1] deals with SARS CoV Urbani strain. The format is cell-based, human severe acute respiratory syndrome coronavirus.
The test system of series [2] is SARS CoV Urbani strain.
Series [3] deals with Vero 76 cells.
The subject of series [4] is Vero 76 cells. The source holds these as a separate data set.
Series [5] relates to TGEV.
A further series concerns the target TGEV 3CLpro (Porcine transmissible gastroenteritis coronavirus, UniProt P0C6Y5). The format is biochemical, transmissible gastroenteritis virus.
For another series, the target named is SARS CoV 3CLpro (Severe acute respiratory syndrome coronavirus, UniProt P0C6X7). In kind it is biochemical.
For series [6] the following is noted: male, Sprague-Dawley, rat, in vivo, 3 mg/kg.
Another series is described as follows: in vivo. To be noted: male, Sprague-Dawley, rat, 3 mg/kg.
Another series in a line: in vitro. The conditions noted are these: swine.
For series [7], the system named is TGEV. Nature of the series: microbe, parasite or virus in culture. To be noted: Alphacoronavirus 1.

Read-outs that look alike come from different tables or passages of the source. Marks after values point to notes of the source that are not given here.

For orientation: EC50 means the concentration needed to bring the measured effect to its halfway point. By bioavailability is commonly meant dose-corrected exposure relative to a reference, in per cent. Read a low bioavailability as poor availability. In general, AUC(0-inf) refers to total exposure, with the tail of the curve extrapolated. A high value points to high exposure. For orientation: clearance means the rate of elimination divided by the concentration. A low value points to a low capacity for elimination. For orientation: Cmax means the highest concentration seen after dosing. One may read the Tmax as the time at which the peak concentration occurs.

Sequence of TGEV 3CLpro (P0C6Y5 2879-3180 limits assumed): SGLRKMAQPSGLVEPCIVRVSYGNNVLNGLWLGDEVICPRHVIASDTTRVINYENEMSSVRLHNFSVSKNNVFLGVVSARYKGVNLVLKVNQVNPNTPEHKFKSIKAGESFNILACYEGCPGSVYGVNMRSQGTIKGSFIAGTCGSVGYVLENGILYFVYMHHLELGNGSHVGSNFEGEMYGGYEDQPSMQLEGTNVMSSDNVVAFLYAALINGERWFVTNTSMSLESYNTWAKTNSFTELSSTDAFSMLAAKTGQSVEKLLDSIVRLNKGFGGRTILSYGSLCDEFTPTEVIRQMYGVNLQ

As to interferon alfacon-1 [Infergen™], in the series on SARS CoV Urbani strain [1], the “Neutral red uptake assay EC50” value amounted to 2.4 µg/mL. Further, in the series on SARS CoV Urbani strain [2], the “Visual assay EC50” value is under 0.32 µg/mL and the “Visual assay SI (CC50/EC50)” value is recorded as over 320. Further, the “Visual assay CC50” value in the series on Vero 76 cells [3] was over 100 µg/mL. The “Neutral red uptake assay CC50” value in the series with Vero 76 cells [4] was over 130 µg/mL.
With “3,14a-dihydroxy-6,7-dimethoxyphenanthroindolizidine [Compound 1h]”, in the series on TGEV [5], the EC50 came out at 18 ± 1 nM and the “SI (CC50/EC50)” value turned out to be 1719. Moreover, the CC50 with ST cells was 31.6 µM.
Consider `COc1cc2c3c(c4cc(OC)c(OC)cc4c2cc1OC)CN1CCC[C@@H]1C3` [1a′, tylophorine], for which, in the series with TGEV [5], the response was half-maximal at 95 ± 17 nM (EC50) and the “SI (CC50/EC50)” value was over 1053. In the series with ST cells (swine), the CC50 is over 100 µM.
`COc1cc2c3c(c4cc(OC)c(OC)cc4c2cc1OC)CN1CCC[C@@H]1C3` [Compound 1a, Tylophorine]: on TGEV 3CLpro, the “Inhibition of TGEV 3CLpro enzymatic activity” value was “did not significantly inhibit”. For the same compound, on SARS CoV 3CLpro, the “Inhibition of SARS CoV 3CLpro enzymatic activity” value was “did not significantly inhibit”. Also, the “SI (CC50/EC50)” value in the series on TGEV [5] is over 1715. For the same compound, the “Visual assay SI (CC50/EC50)” value in the series on SARS CoV Urbani strain [2] is reported as 88. Further, in series [6] (iv), the Ctrough was 1.1 ng/mL and the “t1/2 (apparent elimination half-life)” value is on record as 3.9 ^b h. The Ctrough in series [6] (po) turned out to be 3.0 ng/mL. Besides, the bioavailability in “in vivo” stood at 65.7%. In “in vivo” (iv), this compound had an AUC(0-inf) of 772 ng·h/mL and a clearance of 66.8 mL/min/kg. Besides, in “in vivo” (po), the AUC(0-inf) worked out at 507 ng·h/mL, the Cmax is 31.9 ng/mL and the time of peak concentration (Tmax) is 1.8 h. Besides, the CC50 in the series “in vitro” was over 100 µM. The compound further had a concentration giving a half-maximal response (EC50) in the series with TGEV [7] of 58 ± 4 nM.
`COc1ccc2c3c(c4cc(OC)c(OC)cc4c2c1)CN1CCC[C@H]1[C@@H]3O` [Compound 1e, tylophorinine]: in the series with TGEV [5], the “SI (CC50/EC50)” value was over 1220. This compound gave a CC50 in the series “in vitro” of over 100 µM. Besides, the response in the series on TGEV [7] was half-maximal at 82 ± 8 nM (EC50).
